Measurements: patent US5168102A, “Endocrine manipulation to improve body composition of poultry” (priority 1990, dated 1992)

Assay: Example 1: growth and feed efficiency of broiler cockerels fed thyroid-active substances with or without daily ncGH injection
Assay type: in vivo, broiler cockerels (Ross X Arbor Acre strain)
Text: The purpose of this study was to determine the effect manipulating blood levels of thyroid hormones and/or growth hormone on growth performance and body composition of broiler chickens. […] Purified natural chicken growth hormone (ncGH) was obtained from the Research and Education Center, Harbor-UCLA Medical Center, Torrance, Calif. […] The premix (200 g) was then used to prepare 50 kg batches of each experimental diet according to the formula for broiler-finisher ration described in Table 1. The diet containing 0.5% PTU was prepared by mixing 250 g of PTU into 49.75 kg of the basal ration (Table 1).
Broiler cockerels (Ross X Arbor Acre strain) were raised to 3 weeks-of-age in a battery-brooder and then transferred to wire grow-out cages (4 birds/pen) held in two controlled-environment rooms (10 pens/room). Beginning at 3 weeks of age, eight birds (2 pens of 4 birds) were randomly assigned to each of 10 treatments. The chickens were provided the experimental diets and water ad libitum. […] For injection, the ncGH was reconstituted in sterile 0.025M sodium bicarbonate buffer (pH 9.8). The 10 treatments were administered for 21 days (i.e., from 3 to 6 weeks of age).
Measurement of body weight and feed consumption at weekly intervals allowed calculation of the average daily gain (ADG, g/bird/day), average daily feed consumption (ADFC, g/bird/day) and the feed-to-gain ratio (FIG, kg feed/kg gain) over the 21 day experimental period. Blood samples were taken each week (4, 5, and 6 weeks) just before (pre-injection) and 4 hours post-injection of ncGH. […] At the conclusion of the study, birds were killed and the carcasses frozen for proximate analysis. The frozen carcasses were ground in a meat grinder and aliquots of each ground carcass taken for determination of moisture, protein, fat and ash by established analytical procedures (Official Method of Analysis, Edition 13, W. Horwitz ed., Association of Official Analytical Chemist, Washington, D.C., 1980). Body composition data are presented as a percent of live weight at 6 weeks-of-age. Least squares regression analysis was used to test for significant differences (P<0.05) due treatment.

N[C@@H](Cc1cc(I)c(Oc2ccc(O)c(I)c2)c(I)c1)C(=O)O [T3, 3,3',5-triiodo-L-thyronine]
BW (body weight) (1 ppm T3, 1 ppm T4, 5 ppm TRH or 0.5% PTU in feed, 3 to 6 weeks of age, Group 1, mean ±SEM): 1.70 ± .09 kg | effect on growth rate and feed efficiency (Group 1, dietary): did not affect growth rate or feed efficiency | ADFC (average daily feed consumption) (Group 1, dietary, 21 days): 101.1 ± 5.2 g/bird/day | ADG (average daily weight gain) (Group 1, dietary, 21 days): 48.8 ± 4.3 g/bird/day | FTG (feed-to-gain ratio) (Group 1, dietary, 21 days): 2.08 ± .08 kg feed/kg gain
